Assay results reported in patent US9119846B2, “Method and composition for enhancing cognition in alzheimer's patients” (NEURIM PHARMACEUTICALS (1991) LTD., priority 2003, dated 2015).

Legend:
Assay type in all cases: in vivo, human
elderly volunteers = test: Memory recall (Rivermead story test), crossover study; conditions: for Difference in recalls under melatonin and placebo / Mean number of recalled elements of the story: 2 hours after intake; for Mean number of recalled elements of the story: 2 mg controlled release
Procedure: The effect of melatonin (2 mg controlled release formulation) and placebo on memory recall (Rivermead story test) were assessed in 16 elderly volunteers (>55 years; aged 59 (SD 3.2) years). In a randomised, double-blind, crossover study the subjects were given a tablet of placebo in the evening to establish baseline and then a tablet of melatonin or placebo in a random order in the evening with one week with no treatment in between treatments. The Rivermead test was given to the patients at 2 and 12.5 hours after the administration of the tablet. […] Memory efficiency is increased with controlled release 2 mg melatonin for both recalls (immediate and delayed) in the subjects who were smoking or ceased smoking within the last 6 months prior to the study than non-smokers compared to baseline or crossover placebo.

[1] = system: mixed age insomnia patients; test: Leeds Sleep Evaluation Questionnaire sleep quality, responder rate; conditions: 1 mg per night, 3 weeks
Procedure: The effects of a controlled release formulation of melatonin on subjectively assessed sleep quality were studied in a mixed age insomnia patients population (aged 20-80 years). The subjects were treated for 1 week with placebo to establish baseline characteristics and then for 3 weeks with 1 mg per night of controlled release melatonin or placebo. On the last three days of the baseline and treatment periods patients were asked to assess the quality of their sleep the previous night using the Leeds Sleep Evaluation Questionnaire (Parrott, A. C. and I. Hindmarch (1980). “The Leeds sleep evaluation questionnaire in psychopharmacological investigations—a review.” Psychopharmacology (Berl) 71(2): 173-9) which comprises two 100 mm visual analog scales relating to sleep quality. The distance of the patient mark from the right hand side in mm was measured and the mean answer of the two questions was averaged across the 3 consecutive nights. A responder was defined as a patient showing improvement of 10 mm or more on the averaged value. […] There was no difference in responder rate to placebo between the smokers (46%, n=13) and non-smokers groups (44% n=53, p=0.89, chi-square test).

[2] = system: elderly insomnia patients; test: Psychomotor performance (total reaction time, mean reaction time); conditions: 2 mg per night, 3 weeks
Procedure: The effect of a controlled release formulation of melatonin on psychomotor performance (total reaction time, TRT, and Mean reaction time, MRT) in 40 elderly insomnia patients (aged 60.8 (SD 0.8) years) were studied. The subjects were treated for 2 weeks with placebo (baseline) and 3 weeks with 2 mg per night of controlled release melatonin. On the last two days of treatment psychomotor tests were taken by all patients to assess daytime vigilance.

[3] = system: elderly insomnia patients; test: Subjectively assessed quality of sleep (140 mm visual analog scale), randomized double-blind crossover study; conditions: controlled release 2 mg, 4 weeks, higher = better sleep
Procedure: The effect of a controlled release formulation of melatonin on subjectively assessed sleep quality in 17 elderly insomnia patients (aged 66.9 (SD 5.4) years) were studied in a randomized, double-blind, crossover study. Basal excretion of the main melatonin metabolite 6-sulfatoxymentonin in urine over the nocturnal period (8 p.m.-8 a.m.) was measured and the subjects were treated for 1 week with placebo to establish baseline characteristics followed by a two-period crossover design (4 weeks on either melatonin controlled release 2 mg or placebo) separated by a washout period (1 week). On the last week of the baseline and treatment periods patients were asked to assess the quality of their sleep the previous night by ticking a 140 mm visual analog scale. The distance (in mm) of the patient mark from the left hand side of the scale was measured and a higher number indicated better sleep. The difference from placebo values in the patient evaluation of restful sleep was calculated for smoking and non-smoking patients. There were no significant differences in the amount of nocturnal 6-sulfatoxymentonin excreted by smokers and non-smokers in the study population (3.5+1.5 vs. 6.3+5 μg 6-sulfatoxymentonin, respectively). […] No difference was found in the response to placebo between the smokers and non-smokers.

Q: How did the “memory tasks in the first hours of administration over the respective placebo values” (elderly volunteers; 2 mg controlled release formulation, single administration) turn out when `COc1ccc2[nH]cc(CCNC(C)=O)c2c1` [melatonin] was run?
A: improvement of memory tasks

Q: What about the “Difference in recalls under melatonin and placebo” value (elderly volunteers; Non-smokers (n = 12)) of the same molecule?
A: −2.41

Q: What about the “Mean number of recalled elements of the story” value (elderly volunteers; Non-smokers (n = 12)) of the same molecule?
A: 9.8

Q: And the “Difference in recalls under melatonin and placebo” value (elderly volunteers; Smokers (n = 4))?
A: 3.5

Q: What about the “Mean number of recalled elements of the story” value (elderly volunteers; Smokers (n = 4)) of the same molecule?
A: 14.8

Q: What about the “rate of responders (improvement of 10 mm or more)” value ([1]; non-smokers, n=43) of the same molecule?
A: 40%

Q: And the “rate of responders (improvement of 10 mm or more)” value ([1]; smokers, n=16)?
A: 62%

Q: What about the “improvement in psychomotor skills, MRT” value ([2]; non-smokers) of the same molecule?
A: 0.00062 s

Q: And the “improvement in psychomotor skills, TRT” value ([2]; non-smokers)?
A: -5.21 ms

Q: What about the “improvement in psychomotor skills, MRT” value ([2]; smokers) of the same molecule?
A: -0.03607 s

Q: What about the “improvement in psychomotor skills, TRT” value ([2]; smokers) of the same molecule?
A: -38.95 ms

Q: What about the “Mean change (in mm) in perceived quality of sleep with melatonin over placebo” value ([3]; Non smokers (n = 4)) of the same molecule?
A: −2.8 mm

Q: And the “Mean change (in mm) in perceived quality of sleep with melatonin over placebo” value ([3]; Smokers (n = 10))?
A: 15 mm
